This is an account of results in US9593123B2, “Triazolo[4,5-D]pyrimidine derivatives” (Hoffmann-La Roche Inc., priority 2013, dated 2017).

One test concerns the target human CB2 receptor (Homo sapiens (Human), UniProt P34972). Kind of test: cAMP assay, CHO cells expressing human CB2 receptors. The format is cell-based. The conditions noted are these: functional cAMP assay, read-out: CB2 hcAMP EC50. The method, then: (§1) CHO cells expressing human CB1 or CB2 receptors are seeded 17-24 hours prior to the experiment 50.000 cells per well in a black 96 well plate with flat clear bottom (Corning Costar #3904) in DMEM (Invitrogen No. 31331), 1×HT supplement, with 10% fetal calf serum and incubated at 5% CO2 and 37° C. in a humidified incubator. The growth medium was exchanged with Krebs Ringer Bicarbonate buffer with 1 mM IBMX and incubated at 30° C. for 30 min. Compounds were added to a final assay volume of 100 μl and incubated for 30 min at 30° C. Using the cAMP-Nano-TRF detection kit the assay (Roche Diagnostics) was stopped by the addition of 50 μl lysis reagent (Tris, NaCl, 1.5% Triton X100, 2.5% NP40, 10% NaN3) and 50 μl detection solutions (20 μM mAb Alexa700-cAMP 1:1, and 48 μM Ruthenium-2-AHA-cAMP) and shaken for 2 h at room temperature. The time-resolved energy transfer is measured by a TRF reader (Evotec Technologies GmbH), equipped with a ND:YAG laser as excitation source. The plate is measured twice with the excitation at 355 nm and at the emission with a delay of 100 ns and a gate of 100 ns, total exposure time 10 s at 730 (bandwidth 30 nm) or 645 nm (bandwidth 75 nm), respectively. The FRET signal is calculated as follows: FRET=T730-Alexa730-P(T645-B645) with P=Ru730-B730/Ru645-B645, where T730 is the test well measured at 730 nM, T645 is the test well measured at 645 nm, B730 and B645 are the buffer controls at 730 nm and 645 nm, respectively. cAMP content is determined from the function of a standard curve spanning from 10 μM to 0.13 nM cAMP.
(§2) EC50 values were determined using Activity Base analysis (ID Business Solution, Limited). The EC50 values for a wide range of cannabinoid agonists generated from this assay were in agreement with the values published in the scientific literature.
A general note: Changes in cAMP serve as a functional read-out for many G protein-coupled receptors.

A further test addresses human CB1 receptor (Homo sapiens (Human), UniProt P21554). In words: cAMP assay, CHO cells expressing human CB1 receptors. The format is cell-based. The settings on record: functional cAMP assay, read-out: CB1 hcAMP EC50. The method, then:
as §1, §2

Structures are written as SMILES. A value given as a limit tells only on which side of the number the result lay.

Sequence of human CB2 receptor (P34972 whole entry): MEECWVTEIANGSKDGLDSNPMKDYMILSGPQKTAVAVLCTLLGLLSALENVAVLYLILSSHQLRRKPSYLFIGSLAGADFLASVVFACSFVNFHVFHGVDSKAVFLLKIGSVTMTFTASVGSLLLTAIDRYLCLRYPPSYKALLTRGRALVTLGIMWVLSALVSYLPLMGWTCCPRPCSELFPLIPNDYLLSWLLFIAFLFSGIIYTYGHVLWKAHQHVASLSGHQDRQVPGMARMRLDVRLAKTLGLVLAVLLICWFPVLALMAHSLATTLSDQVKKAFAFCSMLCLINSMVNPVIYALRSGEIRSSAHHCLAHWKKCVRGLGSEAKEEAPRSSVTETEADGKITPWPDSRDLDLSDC
Sequence of human CB1 receptor (P21554 whole entry): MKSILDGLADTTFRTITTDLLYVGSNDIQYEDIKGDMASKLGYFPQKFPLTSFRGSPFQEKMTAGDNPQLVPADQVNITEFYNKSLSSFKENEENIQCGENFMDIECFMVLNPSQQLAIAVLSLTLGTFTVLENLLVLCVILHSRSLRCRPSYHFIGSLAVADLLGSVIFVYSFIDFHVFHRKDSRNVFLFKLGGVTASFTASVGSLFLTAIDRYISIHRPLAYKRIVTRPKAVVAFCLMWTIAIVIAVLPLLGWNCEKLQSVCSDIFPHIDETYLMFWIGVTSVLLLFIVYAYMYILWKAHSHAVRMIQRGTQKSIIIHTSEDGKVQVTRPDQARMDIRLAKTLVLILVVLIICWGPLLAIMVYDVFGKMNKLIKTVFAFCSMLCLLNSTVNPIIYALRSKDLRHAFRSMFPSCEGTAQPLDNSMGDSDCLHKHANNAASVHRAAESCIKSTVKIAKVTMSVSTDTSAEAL

In the case of `Cc1noc(Cn2nnc3c(N4CC[C@](C)(O)C4)nc(N4CCOCC4)nc32)n1` [Example 35, (3S)-3-Methyl-1-[3-[(3-methyl-1,2,4-oxadiazol-5-yl)methyl]-5-morpholin-4-yltriazolo[4,5-d]pyrimidin-7-yl]pyrrolidin-3-ol], the EC50 on human CB2 receptor is 10.8 nM; on human CB1 receptor, greater than 10 µM.
As to `Clc1ccccc1Cn1nnc2c(N3CCCCC3)nc(N3CCCCC3)nc21` [Example 7, 3-[(2-Chlorophenyl)methyl]-5,7-di(piperidin-1-yl)triazolo[4,5-d]pyrimidine], the values for the EC50 on human CB2 receptor and on human CB1 receptor were 9.2 nM and greater than 10 µM, respectively.
As to `FC(F)(F)CSc1nc(N2CCC(F)(F)C2)c2nnn(Cc3ccccc3Cl)c2n1` [Example 83, 3-[(2-Chlorophenyl)methyl]-7-(3,3-difluoropyrrolidin-1-yl)-5-(2,2,2-trifluoroethylsulfanyl)triazolo[4,5-d]pyrimidine], the EC50 on human CB2 receptor is 1.9 nM; at human CB1 receptor it was greater than 10 µM.
The corresponding values for `CCS(=O)(=O)c1nc(N2CCC(F)(F)C2)c2nnn(Cc3ccccc3Cl)c2n1` [Example 86, 3-[(2-Chlorophenyl)methyl]-7-(3,3-difluoropyrrolidin-1-yl)-5-ethylsulfonyltriazolo [4,5-d]pyrimidine] are 86.6 nM and greater than 10 µM.
On the same counts, the results for `CC(C)Sc1nc(N2CCC(F)(F)C2)c2nnn(Cc3ccccc3Cl)c2n1` [Example 84, 3-[(2-Chlorophenyl)methyl]-7-(3,3-difluoropyrrolidin-1-yl)-5-propan-2-ylsulfanyltriazolo[4,5-d]pyrimidine] are 2.3 nM and 0.08 µM.
Turning to `Cc1nonc1Cn1nnc2c(N3CCC(F)(F)C3)nc(C3CC3)nc21` [Example 5, 3-[[5-Cyclopropyl-7-(3,3-difluoropyrrolidin-1-yl)triazolo[4,5-d]pyrimidin-3-yl]methyl]-4-methyl-1,2,5-oxadiazole], the EC50 is 1 nM at human CB2 receptor and greater than 10 µM at human CB1 receptor.
Consider `Cc1nonc1Cn1nnc2c(N3CCC(F)(F)C3)nc(NC(C)(C)C)nc21` [Example 26, N-tert-Butyl-7-(3,3-difluoropyrrolidin-1-yl)-3-[(4-methyl-1,2,5-oxadiazol-3-yl)methyl]triazolo[4,5-d]pyrimidin-5-amine], for which the EC50 at human CB2 receptor is 1 nM; at human CB1 receptor it was greater than 10 µM.
Regarding `CN(c1nc(N2CCC(F)(F)C2)c2nnn(Cc3ccccc3Cl)c2n1)C1CCC1` [Example 18, 3-[(2-Chlorophenyl)methyl]-N-cyclobutyl-7-(3,3-difluoropyrrolidin-1-yl)-N-methyltriazolo[4,5-d]pyrimidin-5-amine], the EC50 at human CB2 receptor worked out at 8.1 nM; on human CB1 receptor it was 0.967 µM.
For `C[C@@]1(O)CCN(c2nc(N3CCOCC3)nc3c2nnn3Cc2ccccc2S(C)(=O)=O)C1` [Example 38, (3R)-3-Methyl-1-[3-[(2-methylsulfonylphenyl)methyl]-5-morpholin-4-yltriazolo[4,5-d]pyrimidin-7-yl]pyrrolidin-3-ol], the EC50 was 312 nM at human CB2 receptor and greater than 10 µM on human CB1 receptor.
For the molecule `CCCCSc1nc(N2CCC(F)(F)C2)c2nnn(Cc3ccccc3Cl)c2n1` [Example 91, 5-Butylsulfanyl-3-[(2-chlorophenyl)methyl]-7-(3,3-difluoropyrrolidin-1-yl)triazolo [4,5-d]pyrimidine], the EC50 on human CB2 receptor is 6.9 nM; on human CB1 receptor it was greater than 10 µM.
On the same counts, the results for `C[C@H](Oc1nc(N2CCC(F)(F)C2)c2nnn(Cc3ccccc3C(F)(F)F)c2n1)C(F)(F)F` [Example 68, 7-(3,3-Difluoropyrrolidin-1-yl)-3-[[2-(trifluoromethyl)phenyl]methyl]-5-[(2S)-1,1,1-trifluoropropan-2-yl]oxytriazolo[4,5-d]pyrimidine] are 0.4 nM and greater than 10 µM.
With `CC(C)COc1nc(N2CCC(F)(F)C2)c2nnn(Cc3ccccc3Cl)c2n1` [Example 54, 3-[(2-Chlorophenyl)methyl]-7-(3,3-difluoropyrrolidin-1-yl)-5-(2-methylpropoxy) triazolo[4,5-d]pyrimidine], the results for the EC50 at human CB2 receptor and at human CB1 receptor were 1.2 nM and greater than 10 µM, respectively.
For the molecule `CC(=O)N[C@H]1CCN(c2nc(NC(C)(C)C)nc3c2nnn3Cc2ncccc2Cl)C1` [Example 27, N-[(3S)-1-[5-(tert-Butylamino)-3-[(3-chloropyridin-2-yl)methyl]triazolo[4,5-d]pyrimidin-7-yl]pyrrolidin-3-yl]acetamide], the EC50 at human CB2 receptor is 267 nM; on human CB1 receptor, greater than 10 µM.
On to `CC(C)c1nc(N2CCC(F)(F)C2)c2nnn(Cc3ccccc3Cl)c2n1` [Example 3, 3-[(2-Chlorophenyl)methyl]-7-(3,3-difluoropyrrolidin-1-yl)-5-isopropyl-triazolo[4,5-d]pyrimidine], for which the EC50 on human CB2 receptor was determined as 0.5 nM; on human CB1 receptor it was 0.77 µM.
For `C[C@@]1(O)CCN(c2nc(N3CCOCC3)nc3c2nnn3Cc2ccccc2Cl)C1` [Example 36, (3R)-1-[3-[(2-Chlorophenyl)methyl]-5-morpholin-4-yltriazolo[4,5-d]pyrimidin-7-yl]-3-methylpyrrolidin-3-ol], the EC50 on human CB2 receptor was 220 nM; at human CB1 receptor, greater than 10 µM.
On the same counts, the results for `FC1(F)CCN(c2nc(OCC3CC3)nc3c2nnn3Cc2ccccc2Cl)C1` [Example 47, 3-[(2-Chlorophenyl)methyl]-5-(cyclopropylmethoxy)-7-(3,3-difluoropyrrolidin-1-yl)triazolo[4,5-d]pyrimidine] are 3.6 nM and greater than 10 µM.
For `C[C@]1(O)CCN(c2nc(N3CCOCC3)nc3c2nnn3Cc2ccccc2C(F)(F)F)C1` [Example 33, (3S)-3-Methyl-1-[5-morpholin-4-yl-3-[[2-(trifluoromethyl)phenyl]methyl]triazolo[4,5-d]pyrimidin-7-yl]pyrrolidin-3-ol], the values for the EC50 at human CB2 receptor and at human CB1 receptor were 7.2 nM and greater than 10 µM, respectively.
Turning to `CC(C)CSc1nc(N2CCC(F)(F)C2)c2nnn(Cc3ccccc3Cl)c2n1` [Example 92, 3-[(2-Chlorophenyl)methyl]-7-(3,3-difluoropyrrolidin-1-yl)-5-(2-methylpropylsulfanyl)triazolo[4,5-d]pyrimidine], the EC50 at human CB2 receptor is 2.5 nM; at human CB1 receptor, greater than 10 µM.
As for `CC(C)(C)Nc1nc(N2CC[C@H](O)C2)c2nnn(Cc3ccccc3Cl)c2n1` [Example 28, (3S)-1-[5-(tert-Butylamino)-3-[(2-chlorophenyl)methyl]triazolo[4,5-d]pyrimidin-7-yl]pyrrolidin-3-ol], the EC50 at human CB2 receptor was 2.3 nM; on human CB1 receptor it was greater than 10 µM.
On the same counts, the results for `C[C@@]1(O)CCN(c2nc(N3CCOCC3)nc3c2nnn3Cc2ccccc2C(F)(F)F)C1` [Example 37, (3R)-3-Methyl-1-[5-morpholin-4-yl-3-[[2-(trifluoromethyl)phenyl]methyl]triazolo[4,5-d]pyrimidin-7-yl]pyrrolidin-3-ol] are 23.6 nM and greater than 10 µM.
In the case of `CC(C)(C)COc1nc(N2CCC(F)(F)C2)c2nnn(Cc3ccccc3Cl)c2n1` [Example 52, 3-[(2-Chlorophenyl)methyl]-7-(3,3-difluoropyrrolidin-1-yl)-5-(2,2-dimethylpropoxy) triazolo[4,5-d]pyrimidine], the EC50 on human CB2 receptor was 0.8 nM; on human CB1 receptor it was greater than 10 µM.
With `CC(C)(C)CNc1nc(N2CCC(F)(F)C2)c2nnn(Cc3ccccc3Cl)c2n1` [Example 16, 3-[(2-Chlorophenyl)methyl]-7-(3,3-difluoropyrrolidin-1-yl)-N-(2,2-dimethylpropyl) triazolo[4,5-d]pyrimidin-5-amine], the EC50 was 3.1 nM at human CB2 receptor and greater than 10 µM on human CB1 receptor.
The corresponding values for `FC(F)COc1nc(N2CCC(F)(F)C2)c2nnn(Cc3ccccc3Cl)c2n1` [Example 43, 3-[(2-Chlorophenyl)methyl]-5-(2,2-difluoroethoxy)-7-(3,3-difluoropyrrolidin-1-yl)triazolo[4,5-d]pyrimidine] are 26.4 nM and greater than 10 µM.
On the same counts, the results for `CC(=O)N[C@H]1CCN(c2nc(OCC(C)(C)C)nc3c2nnn3Cc2ncccc2Cl)C1` [Example 78, N-[(3S)-1-[3-[(3-Chloropyridin-2-yl)methyl]-5-(2,2-dimethylpropoxy)triazolo[4,5-d]pyrimidin-7-yl]pyrrolidin-3-yl]acetamide] are 168 nM and greater than 10 µM.
On the same counts, the results for `C[C@@H](Oc1nc(N2CCC(F)(F)C2)c2nnn(Cc3ccccc3Cl)c2n1)C(F)(F)F` [Example 51, 3-[(2-Chlorophenyl)methyl]-7-(3,3-difluoropyrrolidin-1-yl)-5-[(2R)-1,1,1-trifluoropropan-2-yl]oxytriazolo[4,5-d]pyrimidine] are 2.1 nM and greater than 10 µM.

As a reminder, the EC50 is the concentration giving half of the maximal effect.
